One series has as its system beta-blocking activity. Also on record: method as in Regardh et al., 1974. The following applies: both active metabolites together; ref Regardh et al., 1974; cited from earlier work.
The conditions of series [1]: cited from earlier work.
In series [2] the target is recombinant human CYP3A4 supersomes (Homo sapiens, UniProt P08684). As for the experimental part: (§1) Microsomes and supersomes were stored at −80°C until used.
(§2) For inhibition studies, the reaction mixture was pre-incubated with the specific inhibitors (concentrations indicated in the figures) for 10 min prior to the addition of test compounds and NADPH. […] Following the incubation in the absence (control) or presence of inhibitors, the reactions were terminated at selected time-points by transferring 50 μL of the incubation mixture into a matrix autosampler vial, to which a threefold volume of ice-cold methanol (containing the internal standards) was added. […] The formation rate (pmol/min/pmol P450) in the absence and the presence of the inhibitors was calculated from the linear parts of the concentration-time curves and expressed as an absolute value or as a percentage relative to the control values.
(§3) Chromatographic separation was performed on a Shimadzu HPLC system (Shimadzu AG, Reinach, Switzerland), coupled to a triple quadrupole tandem mass spectrometer (API4000 or API5500, AB/MDS Sciex, Concord, Canada), operating in positive electrospray ionization mode.
(§4) The CYP activities were determined as the respective metabolite formation rates corresponding to the slope in the metabolite concentration versus time graphs.

Another series concerns CYP3A4. The series can be described thus: Metoprolol metabolism by human liver microsomes with ketoconazole. The note with it: pooled human liver microsomes, pH 7.4, probe metoprolol 25 μM. Type of series: in vitro ADME. As for the experimental part: as §1, §2, §3, §4
(In general: Microsomes from liver hold many membrane-bound enzymes, among them those of drug oxidation.)

Series [3] can be described thus: Metoprolol metabolism by human liver microsomes without inhibitor. Type of series: in vitro ADME. The note with it: inhibition studies using human liver microsomes; mean ± 95%CI. How it is done: as §1, §2, §3, §4
The target in series [4] is T1, CYP2D6 (Homo sapiens, UniProt P10635). The following applies: ref Johnson and Burlew, 1996; cited from earlier work.
T1 sequence (P10635 whole entry): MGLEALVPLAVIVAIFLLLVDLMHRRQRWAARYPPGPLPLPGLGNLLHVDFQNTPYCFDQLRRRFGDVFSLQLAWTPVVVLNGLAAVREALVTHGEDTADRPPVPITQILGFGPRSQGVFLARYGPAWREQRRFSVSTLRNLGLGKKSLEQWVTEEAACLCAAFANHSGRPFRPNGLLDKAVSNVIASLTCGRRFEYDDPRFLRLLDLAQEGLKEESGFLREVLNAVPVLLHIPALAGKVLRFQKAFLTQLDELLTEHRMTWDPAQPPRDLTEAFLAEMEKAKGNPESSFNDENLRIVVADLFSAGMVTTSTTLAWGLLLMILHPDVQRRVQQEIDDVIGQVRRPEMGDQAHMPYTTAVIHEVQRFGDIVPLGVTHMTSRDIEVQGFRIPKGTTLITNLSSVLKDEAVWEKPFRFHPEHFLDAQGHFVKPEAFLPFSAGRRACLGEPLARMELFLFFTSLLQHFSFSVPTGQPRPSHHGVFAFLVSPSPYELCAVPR
Series [5] in a line: In vivo assessment of CYP induction (Basel phenotyping cocktail before and after rifampicin). The note with it: 15 healthy volunteers, rifampicin 600 mg per day for 7 days.
Procedure: We used the ratio between the induced and the basal state of the Cl/F of midazolam as a marker of CYP3A4 induction.
Experiments were carried out 5 times unless stated otherwise. Means were compared with the two-tailed Student’s t-test using GraphPad Prism 6.0 (GraphPad Software, San Diego, CA, United States). Data are presented as mean ± SD unless stated otherwise. Induction levels above twofold with statistically significant differences (p < 0.05) were considered relevant.
Series [6] has as its target T1, CYP2D6. The following applies: primary human hepatocytes; without reaching statistical significance; ref Madan et al., 2003; cited from earlier work.
The target in series [7] is T1, CYP2D6. Kind of series: Metoprolol metabolism by human liver microsomes with quinidine. How it is done: as §1, §2, §3, §4
Series [8] addresses T1, CYP2D6. Also on record: Pooled human liver microsomes (HLM; Lot #38289); tissue Corning Life science Lot #38289; host or cells: pooled human liver microsomes; method as in Glaeser et al., 2005. The note with it: enterocytes of human subjects; 600 mg rifampicin for 10 days; without reaching statistical significance; ref Glaeser et al., 2005; cited from earlier work.
The test system of series [9] is CYP2D6 mRNA. The series can be described thus: rt-PCR quantification of CYP2D6 mRNA in HepaRG cells after rifampicin. The class given is cell-based, human. As for the experimental part:
HepaRG cells were purchased from Biopredic International (Rennes, France) as undifferentiated cryopreserved cells with the associated medium. Freshly split HepaRG cells were seeded at 9000 cells/well in 96-well plates (or 0.05 × 10^6 cells/well in 24-well plates) and treated over the course of the next 4 weeks as previously described ([Aninat et al., 2006]).
(§5) A total of 350 μL of RLT buffer (Qiagen, Hombrechtikon, Switzerland) was used to lyse the respective liver cell models, after which the lysate was transferred to Qiashredder columns and centrifuged for 2 min at 13,000 rpm. From the eluate, total RNA was extracted and purified according to the manufacturer’s instructions (Qiagen, RNeasy mini extraction kit). The concentration of the extracted RNA was measured spectrophotometrically at 260 nm on a NanoDrop 2000 (Thermo Fisher Scientific, Wohlen, Switzerland). cDNA was reverse transcribed from the isolated RNA using the Qiagen omniscript system. For quantitative rt-PCR, 10 ng cDNA was used. […] Quantification of mRNA expression levels was performed using the comparative-threshold cycle method ([Livak and Schmittgen, 2001]).

Series [10] has as its system primary human hepatocytes. As for the experimental part: Experimental control culture wells were treated with solvent [DMSO, 0.1% (v/v)] alone. […] The bottoms of the wells were scraped using a pipette tip, after which the contents were transferred to an autosampler vial.
as §3, §4
For induction experiments, metabolite formation rates were determined as described above, and the fold change versus the basal conditions was calculated as the ratio of the metabolite formation rate in wells exposed to an inducer versus formation rates in control wells.

Series [11] deals with CYP2D6 mRNA. Kind of series: rt-PCR quantification of CYP2D6 mRNA in primary human hepatocytes after rifampicin. The class given is cell-based. The following applies: primary human hepatocytes Lot #Hu8119; rifampicin 20 μM 48 h. As for the experimental part:
Primary cryopreserved human hepatocytes (Life Technologies, Lot #Hu8119 and Lot #Hu8124) were plated at 0.05 × 10^6 cells/well in collagen type-1 precoated 96-well plates (or 0.25 × 10^6 cells/well in 24-well plates) in William’s E medium supplemented with 10% FCS (v/v), 1% L-glutamine 200 mM (v/v), 1% Pen Strep (v/v), 0.1% dexamethasone 100 μM (v/v), and 0.1% insulin 100 μM (v/v), and then incubated at 37°C in the presence of 5% CO2 and 95% humid air.
as §5

Sequence of recombinant human CYP3A4 supersomes (P08684 whole entry): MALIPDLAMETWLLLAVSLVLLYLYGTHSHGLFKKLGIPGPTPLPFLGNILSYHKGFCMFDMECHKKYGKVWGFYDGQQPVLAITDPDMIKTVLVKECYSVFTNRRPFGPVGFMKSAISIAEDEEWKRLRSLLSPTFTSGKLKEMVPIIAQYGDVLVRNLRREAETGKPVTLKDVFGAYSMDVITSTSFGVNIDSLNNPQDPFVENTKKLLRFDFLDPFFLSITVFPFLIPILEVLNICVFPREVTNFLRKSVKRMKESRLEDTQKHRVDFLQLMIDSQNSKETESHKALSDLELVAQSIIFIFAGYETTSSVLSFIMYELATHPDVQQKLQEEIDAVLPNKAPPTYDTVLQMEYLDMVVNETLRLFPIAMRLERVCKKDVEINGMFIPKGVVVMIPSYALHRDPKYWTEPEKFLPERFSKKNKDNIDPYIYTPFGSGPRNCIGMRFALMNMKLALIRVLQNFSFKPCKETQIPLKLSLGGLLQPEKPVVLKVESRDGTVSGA

As to `CC(C)NCC(O)COc1ccc(CCO)cc1` (centres unmarked) [O-demethylmetoprolol], in the series on beta-blocking activity, the “contribution to the total beta-blocking activity of metoprolol” value is on record as “approximately 10%”.
Take `COCCc1ccc(OC[C@H](O)CNC(C)C)cc1` [R-metoprolol]: the “clearance higher than that of S-metoprolol” value in [1] (human, in vivo) was 40%.
For `COc1ccc2c(c1)[C@]13CCCC[C@@H]1[C@H](C2)N(C)CC3` [dextromethorphan], in [2] (rhCYP3A4 supersomes, check for CYP2D6 activity, data not shown), the conversion to dextrorphan result is given as “not quantifiable”.
One may read the inhibition as the change of the read-out against control, counted positive when it falls. Lower therefore signals a weak effect. `CC(=O)N1CCN(c2ccc(OCC3COC(Cn4ccnc4)(c4ccc(Cl)cc4Cl)O3)cc2)CC1` (centres unmarked) [ketoconazole] gave an inhibition at 1 μM in the series on CYP3A4 of 9.9 to 17.5%.
Regarding `COCCc1ccc(OCC(O)CNC(C)C)cc1` (centres unmarked) [metoprolol], in series [3], the “contribution of CYP3A4, 2B6, and 2C9 together to N-dealkylation of metoprolol” value worked out at 7.6 ± 1.7%; the “contribution of CYP3A4, 2B6, and 2C9 together to O-demethylation of metoprolol” value came to 19.0 ± 2.6%; the “contribution of CYP3A4, 2B6, and 2C9 together to α-hydroxylation of metoprolol” value came to 4.0 ± 0.7%. Further, the “part of orally administered metoprolol metabolized by CYP2D6” value on CYP2D6 [4] is “Approximately 70%”. Moreover, the bioavailability result in series [1] (oral, ref Regardh and Johnsson, 1980) was “approximately 50%”.
In the case of `Cc1ncc2n1-c1ccc(Cl)cc1C(c1ccccc1F)=NC2` [midazolam], the “formation of 1′-OH-midazolam from midazolam by CYP3A4 overexpressing supersomes” value in series [2] (recombinant enzyme) is on record as “rapid”. Moreover, the “clearance of midazolam after rifampicin” value in series [5] (2 mg midazolam, all subjects) is “increase”.
On to `CCC1(c2ccccc2)C(=O)NC(=O)NC1=O` [phenobarbital], for which the “increase of the activity of dextromethorphan O-demethylation” value on CYP2D6 [6] is reported as “almost identical effect”.
Turning to `C=C[C@H]1C[N@@]2CC[C@H]1C[C@@H]2[C@@H](O)c1ccnc2ccc(OC)cc12` [quinidine], the “block of formation of the phenylacetate metabolite from O-demethylated metoprolol” value on CYP2D6 [7] (HLM, quinidine 1 μM) is “blocked completely”. Moreover, on CYP2D6 [7] (human, pooled human liver microsomes, pH 7.4, probe metoprolol 25 μM), the activity at 1 μM was 8%.
As for `CO[C@H]1/C=C/O[C@@]2(C)Oc3c(C)c(O)c4c(O)c(c(/C=N/N5CCN(C)CC5)c(O)c4c3C2=O)NC(=O)/C(C)=C\C=C\[C@H](C)[C@H](O)[C@@H](C)[C@@H](O)[C@@H](C)[C@H](OC(C)=O)[C@@H]1C` [rifampicin], the “increase of CYP2D6 protein expression” value at CYP2D6 [8] was 1.6 factor. Also, the “induction of CYP2D6 mRNA” value in the series on CYP2D6 mRNA [9] (HepaRG cells, rifampicin 20 μM for 48 h) was “not induced”. In addition, the “effect on CYP2D6 mRNA” value in the series on CYP2D6 mRNA [9] (both cell models (HepaRG cells and primary human hepatocytes), 20 μM rifampicin) is recorded as “not affected”. Moreover, in series [10] (primary human hepatocytes Lot #Hu8124, rifampicin 20 μM 48 h), the “increase in O-demethylation of metoprolol” value is recorded as 1.4 factor. Moreover, in series [10] (primary human hepatocytes treated with rifampicin (Figure 3D, lot #Hu8124)), the “increase in production of α-OH-metoprolol” value is 75%. In the series with CYP2D6 mRNA [11], the “CYP2D6 mRNA expression levels” value is “no increase”. In addition, the “increase of the activity of dextromethorphan O-demethylation” value at CYP2D6 [6] is 1.3 factor.
Consider `COCC(O)c1ccc(OCC(O)CNC(C)C)cc1` (stereo not drawn) [α-OH-metoprolol], for which, in series [5] (12.5 mg metoprolol oral, statistically not significant), the “increase in α-OH-metoprolol formation / AUC after rifampicin” value was determined as 9%. Also, the “contribution to the total beta-blocking activity of metoprolol” value in the series on beta-blocking activity is “approximately 10%”.
